The record followed here is patent US9957289B2, “Compounds and methods for treating bacterial infections” (Washington University, priority 2013, dated 2018).

As a reminder, the Kd is the free concentration of one partner at which half of the binding sites on the other are occupied at equilibrium, for simple one-to-one binding.

In brackets after ≈: the same amount, converted by molar mass. Entries after “also recorded” stand apart in the source; their conditions may differ.

Data set [1] concerns UTI89. As to the kind of experiment: UTI89 biofilm formation in urine under flow. The data set is classed as cell-based, Escherichia coli. As to conditions: 1% in urine under flow. The source says:
To investigate the potential therapeutic effects of mannosides on CAUTI, we first assessed the inhibitory effects of methyl-a-D-mannopyranoside (methyl mannose), on UTI89 biofilm formation in urine under flow.

A further data set concerns PBC-1. The data set is described as follows: Growth curve / MIC in TMP-SMZ, PBC-1. The data set is classed as cell-based. The conditions noted are these: Escherichia coli; PBC-1, growth curves in TMP-SMZ; read-out: Minimum Inhibition Concentration (MIC). How it is done: Mice were IP treated with 6 30 min prior to inoculation with bacteria and compared to a control group of untreated animals. After inoculation with UTI89 or PBC-1, bacterial CFUs were quantified at 6 hpi.
Mannoside ZFH-2056 was added at 100 μM. Growth curves were performed in a 96-well plate at 37° C. with A600 readings taken every 30 min for 8 h.

Data set [2] deals with UTI89. The data set is described as follows: microbe, parasite or virus in culture. The conditions noted are these: Escherichia coli.
The target of data set [3] is T1, FimH (Escherichia coli, UniProt P08191).
T1 construct: endogenous in cells; host or cells: type 1 piliated uropathogenic E. coli (UPEC)
T1 sequence (P08191 22-300): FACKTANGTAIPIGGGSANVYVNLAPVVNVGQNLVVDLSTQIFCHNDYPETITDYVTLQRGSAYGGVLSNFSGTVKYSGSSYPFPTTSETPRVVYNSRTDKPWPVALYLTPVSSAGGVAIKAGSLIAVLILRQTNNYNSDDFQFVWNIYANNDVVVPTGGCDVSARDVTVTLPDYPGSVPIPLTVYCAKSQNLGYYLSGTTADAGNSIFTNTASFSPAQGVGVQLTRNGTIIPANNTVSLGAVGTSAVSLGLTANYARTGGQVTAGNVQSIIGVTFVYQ
The data set is described as follows: Hemagglutination inhibition (HAI) assay, guinea pig red blood cells. The data set is classed as cell-based, E. coli. As to conditions: concentration inhibiting >90% hemagglutination of guinea pig red blood cells. How it is done:
FIG. 15 depicts the hemagglutination assay (HA) used to assess the compounds' ability to block FimH mediated binding. The HAI titer quantitatively measure the effect of inhibitors on blocking the FimH-mediated hemagglutination (HA) of guinea pig red blood cell infected with E. coli.
In some embodiments, activity of the compound is measured using hemmagglutination titer of guinea pig red blood cells. Hemagglutination of guinea pig red blood cells by type1 piliated UPEC is dependent upon FimH mannose binding ability and serial dilutions allow a quantitative analysis.
Hemagglutination assays for mannose-sensitive agglutination of guinea pig red blood cells were performed as previously described.

The nature of data set [4]: Mouse oral PK, mannoside concentration in urine. As to conditions: mice, 50 mg/kg oral; for detectability in urine: samples at 1, 3, 6 and 8 hours. The data set is classed as in vivo. How it is done: Compounds ZFH-4269 (FIG. 6A), ZFH-5254 (FIG. 6B), ZFH5240 (FIG. 6C), and a Prodrug were dosed at 50 mg/kg and plasma and urine samples were taken at 1, 3, 6 and 8 hours after dosing. […] Taken together, the high oral bioavailability and in vivo efficacy observed in animal studies support mannosides as promising therapeutic candidates for UTI treatment/prevention.
For intraperitoneal dosing, 50 μl of a 2 mg/ml (5 mg/kg) or 4 mg/ml (10 mg/kg) solution of ZFH-2056 in PBS was injected into the peritoneal cavity of the mouse. For oral dosing, 100 μl of a 20 mg/ml (100 mg/kg) solution of ZFH-2056 in 8% DMSO was inoculated with a gavage needle into the mouse stomach. Urine was collected at 30 min, 1, 2, 3, 4, 6, and 8 h post-treatment. An equal volume of 10 μM internal standard (ZFH-2050) was added to the urine. Mannosides were extracted from the urine by loading on C18 columns (100 mg, Waters), washing with 30% methanol, and eluting with 60% methanol. Vacuum-concentrated eluates were analyzed using liquid chromatography-mass spectrometry system30 with a lower heated capillary temperature of 190° C. and a gradiert as follows: Solvent B (80% acetonitrile in 0.1% formic acid) was held constant at 5% for 5 minutes, increased to 44% B by 45 minutes, and then to a 95% B by 65 minutes. SRM mode quantification was performed with collision gas energy of 30% for the following MS/MS transitions (precursor m/z/product m/z): compound ZFH-2056, 447/285; compound ZFH-2050, 390/228. Absolute quantification was achieved by comparison to a calibration curve.

Data set [5] in a line: Rat pharmacokinetics, IV and PO. The data set is classed as in vivo. As for the experimental part: Mannoside compounds FIM-4269, FIM-5240, FIM-5254, FIM-1CJ82 and FIM-1CJ66 (FIG. 3) were evaluated for pharmacokinetics in the rat. Mannosides were dose IV at 3 mg/kg and PO at 10 mg/kg. Urine and plasma were collected at 15 min, 30 min, 1 hour, 2 hours, 4 hours and 8 hours.

Data set [6] has as its system UTI89. As to the kind of experiment: Mouse model of acute UTI, bladder bacterial CFU after UTI89 infection. The data set is classed as in vivo, Escherichia coli. The conditions noted are these: for total bacterial CFUs in the bladder: mice, 6 hpi. How it is done:
The efficacy of in vivo mannoside treatment was evaluated after orally dosing animals with 50 mg/kg of mannosides ZFH-4269 (FIG. 1A), ZFH-5254 (FIG. 1B) and ZFH-5240 (FIG. 1C) or DMSO or PBS 30 min prior to infecting with UTI89. At 6 hours post-infection (hpi) the bladders were removed and total bacterial CFUs were quantitated. […] Next, analogs of 254 were evaluated in the same mouse model of urinary tract infection. Animals were orally dosed with 25 mg/kg of mannosides ZFH-4269 (FIG. 2A), 1CJ68 (FIG. 2B) and 1CJ70 (FIG. 2C) in 10% cyclodextrin or 10% cyclodextrin 30 min prior to infecting with UT189.
The efficacy of in vivo mannoside treatment was evaluated after orally dosing animals with 25 mg/kg of mannosides ZFH269, Prodrug FIM-4269, ZFH-5254, and ZFH-5240 in 10% cyclodextrin or 10% cyclodextrin 30 min prior to infecting with UTI89. At 6 hours post-infection (hpi) the bladders were removed and total bacterial CFUs were quantitated. […] Next, several different prodrugs were evaluated in the same mouse model of urinary tract infection. Animals were orally dosed with 25 mg/kg of mannosides ZFH-4269, prodrug FIM-1233 (FIG. 8B), prodrug FIM-6123 (FIG. 8C) and prodrug 269 in 10% cyclodextrin or 10% cyclodextrin 30 min prior to infecting with UT189.
(§1) The FimH-mannose interaction was further investigated in an effort to develop potential ligand-based antagonists of UTIs. […] The non-reducing Man4 anchors into the mannose-binding pocket while the GlcNAc folds over Thr51 allowing specific interactions with a hydrophobic tyrosine gate. Heptyl mannoside mimics the GlcNAc tail of oligomannose-3 and extends it further to increase interactions outside the binding pocket resulting in high affinity binding (Kd=5 nM). Based on the high affinity of heptyl mannose for FimH, the ability of heptyl mannose to reduce bacterial infection in our mouse model of UTI was tested. First, biofilm formation as a surrogate for IBCs formed in the bladder was evaluated. […] Thus, UPEC strain UTI89 was incubated with heptyl mannose prior to inoculation into the bladders of mice.
Bacteria were grown under type 1 pili-inducing conditions (2×24 h at 37° C. statically in LB). The bacteria were harvested and resuspended to an OD600 of 0.5 in PBS. Eight-week-old C3H/HeN (Harlan) female mice were anesthetized by inhalation of isoflurane and infected via transurethral catheterization with […] of the bacterial suspension, resulting in 1-2×10^7 inoculum. At 6 hpi, mice were sacrificed by cervical dislocation under anesthesia and the bladders were immediately harvested and processed as described below. All animal studies using mice were approved by the Animal Studies Committee of Washington University (Animal Protocol Number 20100002).
Mannoside ZFH-2056 was administered either IP (5 mg/kg) or orally (100 mg/kg) 30 min prior to inoculation with UTI89. To enumerate the bacteria present, mice were sacrificed at 6 hpi and bladders were aseptically removed and homogenized in 1 ml PBS, serially diluted and plated onto LB agar plates. CFU was enumerated after 16 h of growth at 37° C.

For another data set, the system named is UPEC biofilm formation. The data set is described as follows: Biofilm assay. The conditions noted are these: 1 mM. The format is cell-based, Escherichia coli. How it is done:
as §1
UTI89 was grown in LB broth in wells of PVC microtiter plates at 23° C. in the presence of individual mannosides at varying concentrations. After 48 h of growth, wells were rinsed with water and stained with crystal violet for quantification as described. For biofilm disruption activity in PVC plates, UTI89 was grown in LB broth in wells of PVC microtiter plates at 23° C. After 24 h of growth, mannoside was added and biofilms were grown for an additional 16 h. Wells were then rinsed, stained with crystal violet and quantified. […]

Data set [7] deals with T1, FimH. The data set is described as follows: Binding affinity to FimH. Further details: species or system E. coli. How it is done:
as §1

[8] abbreviates: 25 mg/kg oral in 10% cyclodextrin 30 min prior to infecting with UTI89.

On to `CO[C@H]1O[C@H](CO)[C@@H](O)[C@H](O)[C@@H]1O` [methyl mannose, methyl-a-D-mannopyranoside], for which the biofilm-adherent cells entry with UTI89 [1] (p=0.0012 vs untreated) is “significantly reduced”. In addition, the biofilm biomass result in the data set with UTI89 [1] (p=0.0022 vs untreated) is “significantly reduced”.

With `Cc1cc(NS(=O)(=O)c2ccc(N)cc2)no1` [SMZ, Sulfamethoxazole], the values for the MIC with PBC-1 and in the data set with UTI89 [2] were 1280 µg/mL (≈ 5050 µM) and 0.25 µg/mL (≈ 0.987 µM), respectively.

`CNC(=O)c1cccc(-c2ccc([C@@H](O)C3OC(CO)C(O)C(O)C3O)c(C)c2)c1` (single isomer, unassigned) [Example 18A]: the “HAI Titer EC>90” value at FimH [3] turned out to be 0.031 µM. The detectability in urine entry in data set [4] is on record as “detectable in the urine out to 8 hours post-treatment”. Besides, in [4] (within a 6-hour period), the “level of concentration in the urine” value is listed as “consistently maintained a high level of concentration in the urine”. The “time plasma concentration remained above the limit of detection” value in data set [5] (IV 3 mg/kg) amounted to 2.5 h. In addition, the “mean plasma concentration / PK after IV dose” value in data set [5] (IV 3 mg/kg, listed as FIM-5240, 3 mg/kg) is “the highest relative to the other 4 mannosides; also recorded: best PK”. For the same compound, in data set [5] (PO 10 mg/kg), the “pharmacokinetics after PO dose” value is recorded as “best pharmacokinetics relative to the other mannosides”. In addition, the “time at which plasma concentration fell below the limit of detection” value in [5] (PO 10 mg/kg) was found to be 2 h. In addition, the “total bacterial CFUs in the bladder” value in the data set with UTI89 [6] (setting [8]) was “drop in bacterial counts”; in the data set on UTI89 [6] (50 mg/kg oral 30 min prior to infecting with UTI89, vs DMSO or PBS, listed as 240, 50 mg/kg), “reduced bacterial titers in the bladder relative to DMSO and PBS”; in the data set on UTI89 [6] (50 mg/kg oral 30 min prior to infecting with UTI89, vs DMSO or PBS, listed as ZFH-5240, 50 mg/kg), “drop in bacterial counts”.

As for `Cc1cc(-c2ccc3cc[nH]c(=O)c3c2)ccc1O[C@H]1O[C@@H](CO)[C@@H](O)[C@H](O)[C@H]1O` [Example 7, 7-[3-methyl-4-[(2R,3R,4S,5S,6S)-3,4,5-trihydroxy-6-(hydroxymethyl)tetrahydropyran-2-yl]oxy-phenyl]-2H-isoquinolin-1-one], the “HAI Titer EC>90” value at FimH [3] was 0.030 µM. For the same compound, the detectability in urine entry in [4] is recorded as “detectable in the urine out to 8 hours post-treatment”. The “total bacterial CFUs in the bladder” value in the data set on UTI89 [6] (setting [8]) is “drop in bacterial counts”; in the data set with UTI89 [6] (50 mg/kg oral 30 min prior to infecting with UTI89, vs DMSO or PBS, listed as 254, 50 mg/kg), “reduced bacterial titers in the bladder relative to DMSO and PBS”; in the data set with UTI89 [6] (50 mg/kg oral 30 min prior to infecting with UTI89, vs DMSO or PBS, listed as ZFH-5254, 50 mg/kg) it was “drop in bacterial counts”.

Take `CCCCCCCO[C@H]1O[C@H](CO)[C@@H](O)[C@H](O)[C@@H]1O` [Heptyl mannoside]: in the data set on UPEC biofilm formation, the “UPEC biofilm formation in vitro” value was “inhibited UPEC biofilm formation”. At FimH [7], this compound came in with a Kd of 5 nM. The “virulence in mouse model of UTI” value in the data set on UTI89 [6] (UTI89 incubated with 5 mM compound prior to inoculation into bladders, 6 hours post-infection) is “significant attenuation of virulence”.

Take `CNC(=O)c1cccc(-c2ccc(O[C@H]3O[C@@H](CO)[C@@H](O)[C@H](O)[C@H]3O)c(C)c2)c1` [ZFH-4269, N-methyl-3-[3-methyl-4-[(2R,3R,4S,5S,6S)-3,4,5-trihydroxy-6-(hydroxymethyl)tetrahydropyran-2-yl]oxy-phenyl]benzamide]: the detectability in urine entry in [4] is “detectable in the urine out to 8 hours post-treatment”. Further, the bladder titers entry in the data set with UTI89 [6] (acute UTI model (FIG. 27D)) is “significantly reduce bladder titers”. Also, the “total bacterial CFUs in the bladder” value in the data set with UTI89 [6] (25 mg/kg oral in 10% cyclodextrin 30 min prior to infecting with UTI89, 25 mg/kg) is “drop in bacterial counts”; with UTI89 [6] (25 mg/kg oral in 10% cyclodextrin 30 min prior to infecting with UTI89, listed as ZFH269, 25 mg/kg), “drop in bacterial counts; also recorded: most efficiently reduced bacterial titers in the bladder; also recorded: significantly reduced bacterial titers in the bladder”; in the data set with UTI89 [6] (50 mg/kg oral 30 min prior to infecting with UTI89, vs DMSO or PBS, 50 mg/kg) it was “drop in bacterial counts”; in the data set on UTI89 [6] (50 mg/kg oral 30 min prior to infecting with UTI89, vs DMSO or PBS, listed as 269, 50 mg/kg) it was “reduced bacterial titers in the bladder relative to DMSO and PBS”.
